Measurements from paper PMC9414507, “Drug Repurposing Based on Protozoan Proteome: In Vitro Evaluation of In Silico Screened Compounds against Toxoplasma gondii” (Pharmaceutics, 2022).
Where two headings read alike, the source gives them in different places.

Columns and labels:
[1] = ref Pandemic Response Box and COVID Box supporting information; cited from earlier work
[2] = Cytotoxicity in mammalian cells (MTT assay); format: cell-based; conditions: human, read-out: CC50 (Half Cytotoxic Concentration against HFF cells)
Experimental: HFF were seeded at 5 × 10^4 cells/well in 96-well microplates and incubated overnight to adhere to the plate. After that, the cells were incubated in the presence of increasing concentrations of the compounds for 72 h at 37 °C in a 5% CO2 humidified incubator. The viability of the cells was determined by the MTT assay as previously described. The medium in each well was replaced by PBS (100 µL/well), MTT (5 mg/mL) was added (20 µL/well), and the plate was incubated for 4 h at 37 °C. […] HFF incubated in D2 without drug treatment were used as viability control. Viability of 100% was expressed based on the optical density of untreated HFF cells, after normalization.

Row | Compound | Rule of Five [1] | CC50 at 72 h ([2]; HFF) [nM] | CC50 at 72 h ([2]; HFF cells) [nM]
1 | C[C@H]1O[C@@H](O[C@H]2[C@@H](O)C[C@H](O[C@H]3[C@@H](O)C[C@H](O[C@H]4CC[C@@]5(C)[C@H](CC[C@@H]6[C@@H]5CC[C@]5(C)[C@@H](C7=CC(=O)OC7)CC[C@]65O)C4)O[C@@H]3C)O[C@@H]2C)C[C@H](O)[C@@H]1O [Digitoxin] | 2 | – | –
2 | CCCC(CCC)C(=O)O [Valproic acid] | 4 | – | –
3 | CC(C)C[C@H](NC(=O)[C@H](Cc1ccccc1)NC(=O)c1cnccn1)B(O)O [Bortezomib] | 4 | 79 | –
4 | C[C@H]1O[C@@H](O[C@H]2[C@@H](O)C[C@H](O[C@H]3[C@@H](O)C[C@H](O[C@H]4CC[C@@]5(C)[C@H](CC[C@@H]6[C@@H]5C[C@@H](O)[C@]5(C)[C@@H](C7=CC(=O)OC7)CC[C@]65O)C4)O[C@@H]3C)O[C@@H]2C)C[C@H](O)[C@@H]1O [Digoxin] | 1 | – | –
5 | Nc1nc(F)nc2c1ncn2[C@@H]1O[C@H](CO)[C@@H](O)[C@@H]1O [Fludarabine] | 4 | 2140 | –
6 | NC(=O)c1ncn([C@@H]2O[C@H](CO)[C@@H](O)[C@H]2O)n1 [Ribavirin] | 4 | – | –
7 | COc1c(C)c2c(c(O)c1C/C=C(\C)CCC(=O)O)C(=O)OC2 [Mycophenolic acid] | 4 | – | –
8 | C=CCNc1nc(NCC=C)nc(N2CCN(C(c3ccc(F)cc3)c3ccc(F)cc3)CC2)n1 [Almitrine] | 3 | – | > 20000
9 | C[C@H]1COc2c(N3CCN(C)CC3)c(F)cc3c(=O)c(C(=O)O)cn1c23 [Levofloxacin] | 4 | – | –
10 | COc1cc(Cc2cnc(N)nc2N)cc(OC)c1OC [Trimethoprim] | 4 | – | –
11 | COc1cccc2c1C(=O)c1c(O)c3c(c(O)c1C2=O)C[C@@](O)(C(=O)CO)C[C@@H]3O[C@H]1C[C@H](N)[C@H](O)[C@H](C)O1 [Doxorubicin] | 1 | – | –
